Tests used:
ΔConeOnly-StNrdD = target: T1, ΔConeOnly-StNrdD (Streptococcus thermophilus, UniProt A0A3G6JS83); test: LC-MS/MS of dGTP product after glycyl radical activation; type: biochemical; details: 1 mM GTP, 1 mM TTP, no activity effector; 0.15 µM glycyl radical; 37 °C, 120 s; anaerobic
T1 construct: gene DF198_09700; cone domain removed (residues 1 to 115 deleted), connector kept; N-terminal His6 with thrombin site (pET15b); expressed in E. coli T7 Express
T1 sequence (A0A3G6JS83 116-734): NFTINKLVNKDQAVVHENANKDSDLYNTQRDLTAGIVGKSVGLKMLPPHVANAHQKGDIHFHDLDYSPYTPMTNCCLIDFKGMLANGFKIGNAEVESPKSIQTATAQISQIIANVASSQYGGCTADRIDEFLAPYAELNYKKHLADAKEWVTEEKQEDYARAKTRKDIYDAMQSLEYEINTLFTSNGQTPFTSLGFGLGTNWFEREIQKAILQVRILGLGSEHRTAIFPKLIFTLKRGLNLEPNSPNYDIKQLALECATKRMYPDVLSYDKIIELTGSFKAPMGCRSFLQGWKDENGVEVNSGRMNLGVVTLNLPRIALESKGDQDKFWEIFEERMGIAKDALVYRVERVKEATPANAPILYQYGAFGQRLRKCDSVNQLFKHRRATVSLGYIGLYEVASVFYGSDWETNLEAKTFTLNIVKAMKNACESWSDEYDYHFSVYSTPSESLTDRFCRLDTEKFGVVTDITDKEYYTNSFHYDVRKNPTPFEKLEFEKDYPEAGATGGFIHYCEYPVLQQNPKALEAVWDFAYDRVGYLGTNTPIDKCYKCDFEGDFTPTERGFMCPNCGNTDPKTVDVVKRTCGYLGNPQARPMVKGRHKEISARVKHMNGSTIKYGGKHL

StNrdD (WT-StNrdD) = target: T2, StNrdD (WT-StNrdD) (Streptococcus thermophilus, UniProt A0A3G6JS83); test: cryo-EM ([…] Å); type: binding; details: allosteric specificity effector site at dimer interface; seen with both ATP and dATP; 1 mM TTP, 1 mM GTP, pH 7.5
T2 construct: gene DF198_09700; full length, 734 residues, N-terminal His6 with thrombin site (pET15b), tag cleaved before crystallization; expressed in E. coli T7 Express; dimer; Cys400 thiyl, Gly697 glycyl radical
T2 sequence (A0A3G6JS83 1-734): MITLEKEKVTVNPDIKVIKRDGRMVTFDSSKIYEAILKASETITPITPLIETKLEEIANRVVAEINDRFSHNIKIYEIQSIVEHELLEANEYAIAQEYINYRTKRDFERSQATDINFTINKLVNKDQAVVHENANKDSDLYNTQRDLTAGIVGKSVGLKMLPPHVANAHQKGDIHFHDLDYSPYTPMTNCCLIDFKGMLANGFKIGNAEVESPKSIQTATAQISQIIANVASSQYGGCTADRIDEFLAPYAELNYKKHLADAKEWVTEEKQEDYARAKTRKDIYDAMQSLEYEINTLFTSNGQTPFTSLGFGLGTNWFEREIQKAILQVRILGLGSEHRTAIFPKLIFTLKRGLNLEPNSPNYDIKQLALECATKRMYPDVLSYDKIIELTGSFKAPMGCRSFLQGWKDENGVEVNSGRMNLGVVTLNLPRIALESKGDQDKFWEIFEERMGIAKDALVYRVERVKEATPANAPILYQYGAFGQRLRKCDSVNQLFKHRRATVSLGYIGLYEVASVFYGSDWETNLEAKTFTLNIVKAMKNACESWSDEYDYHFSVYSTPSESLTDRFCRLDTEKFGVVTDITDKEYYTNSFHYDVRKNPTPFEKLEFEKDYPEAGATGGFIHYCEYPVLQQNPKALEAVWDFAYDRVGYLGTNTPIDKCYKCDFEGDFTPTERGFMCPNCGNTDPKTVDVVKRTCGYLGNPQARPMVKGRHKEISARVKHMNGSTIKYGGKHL

Row | SMILES | LC-MS/MS of dGTP product after glycyl radical activation (ΔConeOnly-StNrdD) | cryo-EM (3.6 Å) (StNrdD (WT-StNrdD))
1 | Nc1nc2c(ncn2[C@@H]2O[C@H](COP(=O)(O)OP(=O)(O)OP(=O)(O)O)[C@@H](O)[C@H]2O)c(=O)[nH]1 [GTP] | GTP turnover proceeds in the absence of allosteric inhibitor dATP, although at a lower yield | –
2 | Cc1cn([C@H]2C[C@H](O)[C@@H](COP(=O)(O)OP(=O)(O)OP(=O)(O)O)O2)c(=O)[nH]c1=O [TTP] | – | both structures have density for the TTP specificity effector bound at the dimer interface
